Results on 13 compounds are retold here after US11091476B2, “Protein kinase inhibitors, preparation method and medical use thereof” (Gan & Lee Pharmaceuticals, priority 2015, dated 2021).

Format in all cases: biochemical
The target of one assay is CDK6/CyclinD3 (Homo sapiens (Human), UniProt Q00534). In words: CDK kinase inhibitory activity, ADP-Glo Kinase Assay, CDK6/CyclinD3. To be noted: for CDK1/CDK6 / CDK9/CDK6 / Pim-1/CDK6: ratio of IC50s; for CDK1/CDK6: selectivity for CDK6 over CDK1; for CDK9/CDK6: selectivity for CDK6 over CDK9; for Pim-1/CDK6: selectivity for CDK6 over Pim-1. The protocol:
(§1) Measurement of CDK kinase inhibitory activity of the compounds of this disclosure.
(§2) In vitro inhibitory effect of the compounds of the disclosure on CDK (CDK1, CDK4 and CDK6) kinase activity was tested by the following method.
(§3) 1.1 Instrument and Kit Information
(§4) 1.2 Experimental Preparation • 1.2.1 Preparation of Kinase Reaction Buffer I: The 5×Reaction Buffer A (Promega; V307A-C) provided in the kit was mixed and diluted with MILLI-Q® H2O and 0.1 M DTT (dithiothreitol) to give 4× kinase buffer, and then MILLI-Q® H2O was further added to finally formulate the solution into 1× Kinase buffer.
(§5) 1 μl of 10 mM standard substance stock solution was taken and added to 9 μl of kinase reaction buffer I and mixed well; then 90 μl of kinase reaction buffer I was added and mixed well; then 100 μl of kinase reaction buffer I was added and mixed well. The final concentration was 50 μM. • b. 40 μl of kinase reaction buffer II was added into B2 to B10 of a 96-well plate, and 50 μl of the above solution was added into B1; • c. 10 μl of solution was taken from well B1, added into B2, and mixed well; then 10 μl of the resulting solution was taken and added into B3, and dilution was carried out in sequence to B9, so as to obtain control solutions that are diluted by 5-fold sequentially. • (2) Preparation of test compound solution: • a. Test compound solutions at a certain concentration were taken, respectively, diluted with kinase reaction buffer I to a final concentration of 50 μM compound solution; • b. 40 μl of kinase reaction buffer II was added into H2 to H10 of the 96-well plate; and 50 μl of the above solution was added into H1; • c. 10 μl of solution was taken from well H1, added into H2, and mixed well; then 10 μl of the resulting solution was taken and added into H3, and dilution was carried out in sequence to H9, so as to obtain test compound solutions that are diluted by 5-fold sequentially. • 1.2.4 Preparation of a mixed solution of reaction substrate and ATP: • a. Preparation of ATP solution: • 200 μl of 0.1 mM ATP solution: 2 μl of 10 mM ATP was added to 198 μl of kinase reaction buffer I; • 300 μl of 50 μM ATP solution: 150 μl of kinase reaction buffer I was added to 150 μl of the above 0.1 mM ATP solution; • b. Preparation of 300 μl of reaction substrate solution: • 150 μl 1 μg/μl reaction substrate stock solution was added to 150 μl kinase reaction buffer I, and mixed well; • c. The above a/b solutions were mixed to obtain mixed solutions, respectively.
(§6) 1.3 Experimental process: • 1.3.1: 2 μl of compound solutions of various concentrations were taken, added to a 384-well plate, and centrifuged 3 minutes; • 1.3.2: 4 μl of kinase solution was added to each well, centrifuged at 5000 rpm and 18° C. for 10 minutes, and shaken on a plate shaker for 10 minutes; • 1.3.3: 4 μl of mixed solution of substrate and ATP was added to each well, centrifuged at 5000 rpm and 18° C. for 10 minutes, and shaken on a plate shaker at 37° C. for 90 minutes; • 1.3.4: The 384-well plate was taken out, and allowed to stand to room temperature; • 1.3.5: 10 μl of ADP-GLO™ reagent was added to each well, centrifuged at 5000 rpm and 18° C. for 18 minutes, and shaken on a plate shaker at 25° C. for 40 minutes, and then the reaction was stopped; • 1.3.6: 20 μl of kinase detection reagent was added to each well, centrifuged at 5000 rpm and 18° C. for 10 minutes, and shaken on a plate shaker at 25° C. for 30 minutes; and • 1.3.7: M1000pro MICROPLATE READER was used to read […] values.
(§7) The inhibition rate of each compound at each concentration point was calculated by the formula as follows and curve fitting was performed by GraphPad Prism 5 software to obtain the IC50 value.
A general note: In ADP-Glo the light output rises with the ADP produced.

For a further assay, the target named is CDK9/CyclinD3 (Homo sapiens (Human), UniProt P50750). Kind of assay: Kinase inhibitory activity, ADP-Glo Kinase Assay, CDK9/CyclinD3. The protocol:
as §3, §4, §5, §6, §7

The target of another assay is Pim-1 (Homo sapiens (Human), UniProt P11309). In words: Kinase inhibitory activity on Pim-1. The protocol:
as §4, §5, §6, §7

The target in the next assay is CDK1/CyclinA2 (Homo sapiens (Human), UniProt P06493). In words: CDK kinase inhibitory activity, ADP-Glo Kinase Assay, CDK1/CyclinA2. Here is the method:
as §1, §2, §3, §4, §5, §6, §7

pIC50: −log10 of the molar value.

The term pIC50 denotes −log10 of the IC50, conventionally taken in molar units. Low values mean a high IC50, high ones a low IC50. Regarding `CCC1(C)C(C)=Nc2c(F)cc(-c3nc(Nc4ccc(N5CCNCC5)cn4)ncc3F)cc21` (centres unmarked) [Example 7, 4-(3-ethyl-7-fluoro-2,3-dimethyl-3H-indol-5-yl)-5-fluoro-N-(5-(piperazin-1-yl)pyridin-2-yl)pyrimidine-2-amino], on CDK6/CyclinD3, the pIC50 is 8.49, the CDK1/CDK6 turned out to be 25.71, the CDK9/CDK6 is recorded as 1.40 and the Pim-1/CDK6 is recorded as 141.53. This compound also had a pIC50 against CDK9/CyclinD3 of 8.34. The pIC50 on Pim-1 is 6.34.
The compound `CCC1(C)C(C)=Nc2c(F)cc(-c3nc(Nc4ccc(C5CCN(C)CC5)cn4)ncc3F)cc21` (centres unmarked) [Example 24, 4-(3-ethyl-7-fluoro-2,3-dimethyl-3H-indol-5-yl)-5-fluoro-N-(5-(1-methylpiperidin-4-yl)pyridin-2-yl)pyrimidine-2-amino] had a pIC50 against CDK1/CyclinA2 of 7.12. On CDK6/CyclinD3, the pIC50 is 7.89, the CDK1/CDK6 is given as 5.94, the CDK9/CDK6 came out at 0.13 and the Pim-1/CDK6 turned out to be 5.66. This compound also had a pIC50 at CDK9/CyclinD3 of 8.76. Moreover, the negative logarithm of the IC50 (pIC50) on Pim-1 was 7.14.
In turn, `CC1=Nc2c(F)cc(-c3nc(Nc4ccc(N5CCN(C)CC5)cn4)ncc3F)cc2C12CCCC2` [Example 20, 5-Fluoro-4-(7′-fluoro-2′-methylspiro[cyclopentane-1,3′-indol]-5′-yl)-N-(5-(4-methylpiperazin-1-yl)pyridin-2-yl)pyrimidine-2-amino] showed a pIC50 against CDK1/CyclinA2 of 5.84. In addition, at CDK6/CyclinD3, the negative logarithm of the IC50 (pIC50) was 7.06, the CDK1/CDK6 worked out at 16.49 and the CDK9/CDK6 is reported as 0.003. The same compound had a pIC50 against CDK9/CyclinD3 of 9.62.
`CCN1CCN(Cc2ccc(Nc3ncc(F)c(-c4ccc5c(c4)C4(CCCC4)C(C)=N5)n3)nc2)CC1` [Example 9, N-(5-((4-ethylpiperazin-1-yl)methyl)pyridin-2-yl)-5-fluoro-4-(2′-methylspiro [cyclopentane-1,3′-indol]-5′-yl)pyrimidine-2-amino] gave a pIC50 against CDK1/CyclinA2 of 6.57. On CDK6/CyclinD3, the pIC50 was 7.69, the CDK1/CDK6 is listed as 13.13, the CDK9/CDK6 was 0.71 and the Pim-1/CDK6 is 8.51. Moreover, at CDK9/CyclinD3, the pIC50 was 7.84. Moreover, the pIC50 at Pim-1 is 6.76.
With `CC1=Nc2ccc(-c3nc(Nc4ccc(N5CCNCC5)cn4)ncc3F)cc2C12CCCC2` [Example 14, 5-fluoro-4-(2′-methylspiro[cyclopentane-1,3′-indol]-5′-yl)-N-(5-(piperazin-1-yl)pyridin-2-yl)pyrimidine-2-amino], the pIC50 is 6.63 on CDK1/CyclinA2, 8.39 against CDK6/CyclinD3 and 7.54 against Pim-1. In addition, the CDK1/CDK6 on CDK6/CyclinD3 is 57.40. The Pim-1/CDK6 on CDK6/CyclinD3 was determined as 7.03.
For the compound `CC1=Nc2c(F)cc(-c3nc(Nc4ccc(N5CCN(CCO)CC5)cn4)ncc3F)cc2C12CCCC2` [Example 28, 2-(4-(6-((5-fluoro-4-(7′-fluoro-2′-methylspiro[cyclopentane-1,3′-indol]-5′-yl)pyrimidin-2-yl)amino)pyridin-3-yl)piperazin-1-yl)ethanol], the pIC50 is 6.48 on CDK1/CyclinA2, 8.20 on CDK6/CyclinD3 and 9.02 against CDK9/CyclinD3. Also, the CDK1/CDK6 at CDK6/CyclinD3 was 52.63. The CDK9/CDK6 on CDK6/CyclinD3 stood at 0.15.
For the compound `CCC1(CC)C(C)=Nc2c(F)cc(-c3nc(Nc4ccc(N5CCN(C)CC5)cn4)ncc3F)cc21` [Example 16, 4-(3,3-diethyl-7-fluoro-2-methyl-3H-indol-5-yl)-5-fluoro-N-(5-(4-methylpiperazin-1-yl)pyridin-2-yl)pyrimidine-2-amino], on CDK6/CyclinD3, the negative-log IC50 (pIC50) was 8.04, the CDK1/CDK6 was found to be 10.61, the CDK9/CDK6 turned out to be 1.81 and the Pim-1/CDK6 turned out to be 76.10. In addition, the pIC50 against CDK9/CyclinD3 is 7.79. The compound also showed a pIC50 at Pim-1 of 6.16.
As for `CCN1CCN(Cc2ccc(Nc3ncc(F)c(-c4cc(F)c5c(c4)C4(CCCC4)C(C)=N5)n3)nc2)CC1` [Example 3], the values for the pIC50 against CDK6/CyclinD3 and against Pim-1 were 7.10 and 6.70, respectively.
Compound `CC1=Nc2c(F)cc(-c3nc(Nc4ccc(C5CCNCC5)cn4)ncc3F)cc2C12CCCC2` [Example 13, 5-Fluoro-4-(7′-fluoro-2′-methylspiro[cyclopentane-1,3′-indol]-5′-yl)-N-(5-(piperidin-4-yl)pyridin-2-yl)pyrimidine-2-amino] showed a pIC50 against CDK1/CyclinA2 of 6.49. On CDK6/CyclinD3, the pIC50 is 9.41, the CDK1/CDK6 amounted to 838.46, the CDK9/CDK6 came out at 6.56 and the Pim-1/CDK6 stood at 5.69. At CDK9/CyclinD3, this compound had a pIC50 of 8.59. The compound further gave a pIC50 against Pim-1 of 8.65.
Regarding `CCC1(C)C(C)=Nc2c(F)cc(-c3nc(Nc4ccc(N5CCN(C)CC5)cn4)ncc3F)cc21` (centres unmarked) [Example 18, 4-(3-ethyl-7-fluoro-2,3-dimethyl-3H-indol-5-yl)-5-fluoro-N-(5-(4-methylpiperazin-1-yl)pyridin-2-yl)pyrimidine-2-amino], the pIC50 against CDK1/CyclinA2 was 6.72. Further, on CDK6/CyclinD3, the pIC50 was 8.56, the CDK1/CDK6 worked out at 69.29 and the CDK9/CDK6 is given as 0.36. This compound also showed a pIC50 against CDK9/CyclinD3 of 9.00.
In the case of `CCN1CCN(c2ccc(Nc3ncc(F)c(-c4ccc5c(c4)C4(CCCC4)C(C)=N5)n3)nc2)CC1` [Example 22, N-(5-(4-ethylpiperazin-1-yl)pyridin-2-yl)-5-fluoro-4-(2′-methylspiro[cyclopentane-1,3′-indol]-5′-yl)pyrimidine-2-amino], the values for the pIC50 at CDK1/CyclinA2, at CDK6/CyclinD3 and against CDK9/CyclinD3 were 6.04, 7.28 and 9.30, respectively. Further, the CDK1/CDK6 at CDK6/CyclinD3 amounted to 17.43. For the same compound, the CDK9/CDK6 at CDK6/CyclinD3 stood at 0.009.
Regarding `CC1=Nc2c(F)cc(-c3nc(Nc4ccc(N5CCNCC5)cn4)ncc3F)cc2C1(C)C` [Example 1, 5-fluoro-4-(7-fluoro-2,3,3-trimethyl-3H-indol-5-yl)-N-(5-(piperazin-1-yl)pyridin-2-yl)pyrimidine-2-amino], at CDK6/CyclinD3, the pIC50 was 7.37, the CDK1/CDK6 is 51.68, the CDK9/CDK6 stood at 5.69 and the Pim-1/CDK6 was determined as 5.12. For the same compound, at CDK9/CyclinD3, the pIC50 was 6.61. This compound had a pIC50 against Pim-1 of 6.66.
Compound `CC1=Nc2ccc(-c3nc(Nc4ccc(N5CCN(C)CC5)cn4)ncc3F)cc2C12CCCC2` [Example 25, 5-Fluoro-N-(5-(4-methylpiperazin-1-yl)pyridin-2-yl)-4-(2′-methylspiro [cyclopentane-1,3′-indol]-5′-yl)pyrimidine-2-amino] had a negative-log IC50 (pIC50) at CDK1/CyclinA2 of 6.38. On CDK6/CyclinD3, the pIC50 was 8.06, the CDK1/CDK6 was 47.51 and the CDK9/CDK6 stood at 0.12. For the same compound, on CDK9/CyclinD3, the pIC50 was 8.96.
